Laboratory results reported in article doi:10.1101/2025.01.31.635529v3 (biorxiv, 2025).

biological target: T1, PaAtg18 (Atg18) (Ogataea angusta, UniProt Q5QA94); test: isothermal titration calorimetry; assay type: binding
T1 sequence (Q5QA94 1-525): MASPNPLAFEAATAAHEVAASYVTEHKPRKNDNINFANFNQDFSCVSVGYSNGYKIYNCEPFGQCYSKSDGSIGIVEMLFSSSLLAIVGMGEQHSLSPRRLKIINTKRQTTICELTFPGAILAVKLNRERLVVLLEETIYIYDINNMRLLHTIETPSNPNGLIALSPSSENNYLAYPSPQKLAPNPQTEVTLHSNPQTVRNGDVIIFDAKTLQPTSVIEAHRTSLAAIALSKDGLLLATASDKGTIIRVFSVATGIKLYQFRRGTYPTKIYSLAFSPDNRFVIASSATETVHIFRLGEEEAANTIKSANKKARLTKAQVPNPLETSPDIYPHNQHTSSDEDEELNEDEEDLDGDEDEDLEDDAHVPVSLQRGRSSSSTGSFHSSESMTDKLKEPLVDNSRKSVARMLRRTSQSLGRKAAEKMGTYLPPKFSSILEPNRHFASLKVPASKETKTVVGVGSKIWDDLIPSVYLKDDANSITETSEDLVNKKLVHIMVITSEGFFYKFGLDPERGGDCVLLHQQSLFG

SMILES	Kd [µM]
O=P(O)(O)O[C@H]1[C@H](O)[C@@H](OP(=O)(O)O)[C@H](O)[C@@H](OP(=O)(O)O)[C@H]1O [Ins(1,3,5)P3]	37.4 ± 1.3
O=P(O)(O)O[C@H]1[C@H](O)[C@@H](O)[C@H](OP(=O)(O)O)[C@@H](OP(=O)(O)O)[C@H]1O [Ins(1,3,4)P3]	85.6 ± 23.5
O=P(O)(O)O[C@@H]1[C@H](O)[C@H](O)[C@@H](OP(=O)(O)O)[C@H](OP(=O)(O)O)[C@H]1O [Ins(1,4,5)P3]	116 ± 14
